# Measured values: PMC10865860 (mBio, 2023)
# Test system: SARS-CoV-2 Omicron subvariant XBB.1.16
# Parameters: species or system K18-hACE2 mice
# Settings: mouse, in vivo
structure (smiles),measurement,setting,value
COc1ccccc1C1CC1COC(=O)NC(CC(C)C)C(=O)NC(CC1CCNC1=O)C(O)S(=O)(=O)O (stereo not shown) [11d],body weight loss compared to vehicle,,reduced weight losses
same,lung edema average score,,< 0.5
same,"viral titers in nasal wash, nasal turbinate, and lungs compared to vehicle",,significantly lower
same,fatality by 14 days after virus infection,ip,20%
